# Results as given in patent US20150307549A1, “AGENT FOR PREVENTING ARTERIOSCLEROSIS, AGENT FOR SUPPRESSING VASCULAR INTIMAL THICKENING AND AGENT FOR IMPROVING VASCULAR ENDOTHELIAL FUNCTION” (CALPIS Co., LTD, priority 2006, published 2015).
# Legend:
# [1] = tested on: thoracic aorta ring of Wistar rats; experiment: Endothelium-dependent vasodilator response of thoracic aorta ring of L-NAME-treated rats (Magnus apparatus); assay type: in vivo, rat; conditions: for Degree of vasodilation compared to the group given only L-NAME (in words): given together with L-NAME in drinking water for one week
# Protocol: Wistar rats (7 weeks of age, male) as the test animals were acclimatized for one week. A nitric oxide synthesis inhibitor, NG-nitro-L-arginine methyl ester hydrochloride (L-NAME, manufactured by SIGMA-ALDRICH CORP.) was dissolved in drinking water at the concentration of 1 g/L, and similarly, L-NAME and Val-Pro-Pro synthesized above at 1 g/L and 0.3 g/L, respectively, and L-NAME and Ile-Pro-Pro synthesized above at 1 g/L and 0.3 g/L, respectively. The rats were allowed free access to the prepared drinking water for one week. As a control, only the drinking water without L-NAME dissolved therein was given to a non-treatment group.
# Then, the rats were subjected to fatal exsanguination under diethyl ether anesthesia. The thoracic aorta was taken out, cut into 2 mm long, and made into an aorta ring. The ring was set in a Magnus apparatus (product name “micro tissue organ bath MTOB-1Z”, manufactured by LABO SUPPORT CO., LTD.) filled with 5 ml of Tyrode's solution (composition: 158.3 mM of NaCl, 4.0 mM of KCl, 2.0 mM of CaCl2, 1.05 mM of MaCl2, 0.42 mM of NaH2PO4, 10.0 mM of NaHCO3, and 5.6 mM of glucose; pH 7.4, 37±0.5° C.), and allowed to equilibrate with the resting tension of 2.0 g. The aorta ring was then allowed to constrict with 1 μM of phenylephrine
# The degree of vasodilation by the response was determined as a ratio to the constriction with 1 μM of phenylephrine. In the Table, each value is an average of each group of 8 animals.
# In the Table, each value is an average of each group of 9 animals.
# arteriosclerosis = conditions: administration; Non-patent Publication 5; cited from earlier work
# ApoE knockout mice = experiment: Confirmatory test for effect of inhibiting vascular intimal thickening (Elastica-van Gieson stain, intima/media area ratio); assay type: in vivo, mouse; conditions: 31 weeks; for Inhibition of vascular intimal thickening (in words): Example 2-2, Feeds 1 to 6 versus control; for Degree of Intimal Thickening: intima/media area ratio
# Protocol: ApoE knockout mice (6 weeks of age, male, 8 animals for each group) were allowed free access to Feeds 1 to 7 as shown in Table 6 for 31 weeks. Then the thoracic aorta of the mice was taken out, fixed in 10% neutral buffered formalin, and subjected to the Elastica-van Gieson stain. Micrographs of the tissue specimens were scanned into the computer, and the degree of vascular intimal thickening (intima/media area ratio (%)) was calculated using an image processing software (Image J). The values of the degree of thickening shown in the table are the averages of each group.
# The confirmatory test for the effect of inhibiting vascular intimal thickening was conducted on each of the solid feeds thus produced in the same way as in Example 2-2, and the degree of intimal thickening (intimal/media area ratio (%)) was calculated. The values of the degree of intimal thickening in the table are the averages of each group.
compound,measurement,setting,value
"COC(=O)[C@@H](N)CCCN=C(N)N[N+](=O)[O-].Cl [L-NAME, NG-nitro-L-arginine methyl ester hydrochloride, reference compound]",Degree of vasodilation,"[1]; 10 μM acetylcholine, ratio to constriction with 1 μM phenylephrine, drinking water one week: L-NAME 1 g/L, peptide 0.3 g/L, enalapril 0.5 mg/L",26.1%
"CCOC(=O)[C@H](CCc1ccccc1)N[C@@H](C)C(=O)N1CCC[C@H]1C(=O)O [enalapril, reference compound]",Degree of vasodilation compared to the group given only L-NAME (in words),[1],no significant difference
same,Arteriosclerosis inhibitory effect,arteriosclerosis,does not result in an arteriosclerosis inhibitory effect
Ile-Pro-Pro,Degree of vasodilation compared to the group given only L-NAME (in words),[1],significantly higher
same,Inhibition of vascular intimal thickening (in words),ApoE knockout mice,inhibited vascular intimal thickening concentration-dependently
same,Degree of Intimal Thickening,ApoE knockout mice; Feed 3: 0.0017 wt % in feed (Ile-Pro-Pro 17.1 mg/kg feed),25.3%
same,Degree of Intimal Thickening,ApoE knockout mice; Feed 4: 0.0170 wt % in feed (Ile-Pro-Pro 171.0 mg/kg feed),20.5%
Val-Pro-Pro,Degree of vasodilation compared to the group given only L-NAME (in words),[1],significantly higher
same,Inhibition of vascular intimal thickening (in words),ApoE knockout mice,inhibited vascular intimal thickening concentration-dependently
same,Degree of Intimal Thickening,ApoE knockout mice; Feed 1: 0.0034 wt % in feed (Val-Pro-Pro 34.1 mg/kg feed),21.8%
same,Degree of Intimal Thickening,ApoE knockout mice; Feed 2: 0.0340 wt % in feed (Val-Pro-Pro 341.0 mg/kg feed),18.7%
